From a melting point compilation (Tetko et al.; mined from patent text by program, amines drawn as free bases though some values may be those of a salt) come the findings set out here.

Structures are written as SMILES.

By melting point is commonly meant the temperature of the solid-liquid transition. Regarding `COC(=O)c1ccc(Oc2ccc(N)cc2C(=O)OC)cc1`, the melting point was 144 to 146 °C.
Next, `CC(C)(C)c1cc(I)c2c(c1)CNS(=O)(=O)O2`: 154 to 155 °C; `CC1=C(C(=O)OCOC(=O)C(C)(C)C)N2C(=O)C(NC(=O)OC(C)(C)C)C2SC1` (centres undefined): 97 °C.
Next, `COc1ccc(-c2[nH]nc3c2C(=O)c2c(NC(=O)Cc4ccccc4)cccc2-3)cc1`: 280 °C; `O=C(Nc1ccc(-n2ccnn2)c(F)c1)OCc1ccccc1`: 121 to 122 °C; `CC(=O)Nc1ncc2c(n1)-c1sc(NC(C)=O)nc1CC2`: over 310 °C.
The value for `CCC(Oc1ccc(C2CCOCC2)cc1)C(=O)O` (centres undefined) was 127 °C; that for `CCN(CC)c1cc(-c2ccco2)ncn1` was 179 to 180 °C; that for `CCC(=O)Nc1cccc(NC(=O)CC(C)(OC)OC)c1` was 115 °C.
`Cn1cnc(Cc2cccc(CO)c2O)c1` returned a melting point of 139 to 144 °C.
Next, `CCOC(=O)c1csc(NCc2ccccc2)n1`: 132 to 136 °C.
Next, `CNC(=O)n1cc(C(N)=O)nc1C(C)(C)C`: 145 to 147 °C.
Consider `N#Cc1ccccc1C(Cc1ccc(C(F)(F)F)cc1)Cn1cncn1` (centres undefined), for which the melting point was 123 °C.
The value for `Nc1cccc(NC(=O)OCc2cc3cc(-c4ccc(F)cc4)ccc3o2)c1C(=O)O` was 176 to 178 °C.
Turning to `O=c1ccn(CCCO)c(CO)c1O`, the melting point lay in the range of 138 to 139 °C.
Next, `COc1ccc(-c2nc(-c3c[nH]c4ccccc34)[nH]c2-c2ccc(OC)cc2)cc1`: 246 °C.
The compound `COc1ccc(Oc2c(C)cc(O)cc2C)cc1C(C)C` gave a melting point of 60 to 64 °C.
`Cc1c(=O)o[n-][n+]1CCSC1CCCCC1` had a melting point of 82 to 83 °C.
The value for `COC(=O)c1c(Cc2ccc(S(=O)(=O)N3CCN(C)CC3)cc2)c(=O)c2ccc(Cl)cc2n1-c1ccccc1` was 223 to 227 °C; that for `C=Cn1ccnc1C(O)(c1ccc(Cl)cc1)c1ccc(Cl)cc1` was 174 °C; that for `COCCc1nc2c(N)nc3cc(OCCn4cccc4)ccc3c2n1CC(C)(C)O` was 168 to 169 °C.
The value for `CC(=O)OCC(O)COc1ccc2nc(S(N)(=O)=O)sc2c1` (centres undefined) was 173 to 175 °C; that for `CC1(C(=O)c2c[nH]c3ncc(Br)nc23)CCCCCC1` was 198 °C; that for `O=C1CCC(c2ccc(OC3CCN(C4CCC4)CC3)cc2F)=NN1` was over 300 °C.
The value for `COCC=C(NC(C)=O)C(=O)OC` was 61 to 63 °C; that for `CSc1ccc(-c2ccc(C(F)(F)F)cc2)nc1F` was 70 to 73 °C.
For `CC(C)n1nnc(NC(=O)C(c2ccccc2)c2ccccc2)n1`, the melting point is 175 to 177 °C.
Consider `C=CCN1C(C)(C)CC(OC(=O)CCC(C)(c2ccc(O)c(C(C)(C)C)c2)c2ccc(O)c(C(C)(C)C)c2)CC1(C)C`, for which the melting point was determined as 197 °C.
The value for `CCCCCCCCCCCCc1cc(N)no1` was 79.5 to 81 °C; that for `O=C(O)CCCCN1CCC(C(O)(c2ccc(F)cc2)c2ccc(F)cc2)CC1` was 105 to 107 °C; that for `O=C(O)COCc1cc2cc(Cl)ccc2n1S(=O)(=O)c1ccccc1` was 140 to 142 °C.
Next, `Cc1nn(C)c(OCC(=O)C(C)(C)CCl)c1C(=O)c1ccc(Cl)cc1Cl`: 58 to 60 °C; `CC(=O)Nc1ccc2[nH]c(=O)c(=O)n(CC(C)(C)C)c2c1`: 294 to 295 °C.
Next, `CC1(C)CN=C2C(=O)c3cc(C#N)ccc3N2C1`: 178 to 184 °C; `Cc1nc(O)c(C)c(NCC2CC2)n1`: 227 to 228 °C.
With `COc1ccccc1C(C#N)(CC1CCCCO1)Cn1cncn1` (centres undefined), the melting point was 120 to 121 °C.
`COc1ccc(-c2nc(N)ncc2-c2ccc(=O)n(C(C)C)n2)cc1OC` registered a melting point of 167 °C.
In turn, `NC(=O)C[C@H](NS(=O)(=O)c1ccc2c(c1)Sc1ccccc1O2)C(=O)O` displayed a melting point of 165 to 175 °C.
The value for `COc1ccc(C2=NN(C3CCN(C(=O)CCCNC(=O)OC(C)(C)C)CC3)C(=O)[C@@H]3CC=CC[C@H]23)cc1OC` was 79 to 83 °C.
`NC(=O)C(F)(F)C1(c2ccc(Cl)cc2Cl)CO1` (centres undefined) had a melting point of 100 to 101 °C.
The value for `CCN1CCCC1CNc1ccc(-c2ccnc(Nc3cc(OC)c(OC)c(OC)c3)n2)cn1` (centres undefined) was 81 to 82 °C; that for `Cn1nc(-c2ccc3ccccc3c2)n(C)c1=S` was 173 to 175 °C; that for `COC1=CC2=CCC3C4CC=CC4(C)CCC3C2(C)CC1` (centres undefined) was 83 to 92 °C.
With `CCc1cc2c(cc1Cl)=CCc1cccnc1C=2C1CCN(C(=O)Cc2cccnc2)CC1`, the melting point lay in the range of 67.2 to 69.8 °C.
Next, `Cc1ccc2c(c1)c(Cl)c(C#N)c(=O)n2Cc1ccc(F)cc1`: 206 °C; `COc1cc(OC)c(-c2nncn2CC(C)C)cc1C=CC(=O)c1ccc(S(N)(=O)=O)cc1`: over 240 °C; `CCc1ccc(CCOc2cccc(NC3SC(=O)NC3=O)c2)nc1` (centres undefined): 140 to 142 °C.
The value for `CCCN1CC(O)c2cc(OC)c(OC)c3c2C1Cc1cc(OC)c(OC)cc1-3` (centres undefined) was 153 to 154 °C; that for `CCCc1cn(Cc2ccc(C(=O)NS(=O)(=O)c3ccccc3Cl)cc2OC)c2cc(CCCC(=O)N(C)C)ccc12` was 137 to 138 °C.
Compound `CCCCOC(=O)COc1ccc(C(=O)Nc2ccc(C)cc2Sc2ccccc2-c2nnn[nH]2)cc1` had a melting point of 161 to 162 °C.
The compound `O=[N+]([O-])c1cccc(Oc2cccc3cccnc23)c1` showed a melting point of 133 to 134 °C.
Turning to `CCC(CC)c1ccc(Cl)c2nc3n(c12)CC(C)N3c1cnc(N(C)C)cc1C` (centres undefined), the melting point fell in the range of 204 to 206 °C.
For the compound `CSc1nnc(C(C)C2CC2)c(=O)n1N` (centres undefined), the melting point is 111 to 113 °C.
`COc1cc2c(=O)n(CCCO)c3c4ccccc4[nH]c(=O)c3c2cc1OC` displayed a melting point of 313 °C.
For the compound `O=C(O)Cc1cc(S)n2ncnc2n1`, the melting point fell in the range of 283 to 286 °C.
As to `Cn1nc(N)c2c(-c3ccccc3)cc(N3CCOCC3)nc21`, the melting point was 149 to 152 °C.
In turn, `CC(C)(C)c1cc(CCc2ccccc2NC(=O)N2CCN(Cc3ccccc3)CC2)cc(C(C)(C)C)c1O` gave a melting point of 70 to 72 °C.
`c1ccn2nc(-c3ccncc3)nc2c1` displayed a melting point of 188 to 190 °C.
As to `O=C(CO)NCCCCCCCCCCCCNC(=O)CO`, the melting point fell in the range of 94 to 97 °C.
As for `CC(C)CC(=O)N1CCC(NC(=O)c2ccccc2Oc2ccc(Cl)cc2Cl)CC1`, the melting point was in the range of 57 to 60 °C.
The compound `CC(=O)NNc1ccc(N=Cc2ccccc2)cc1` showed a melting point of 172 to 174 °C.
The value for `Cc1ccccc1Oc1ccccc1C(=O)O` was 133 to 134 °C; that for `COc1ccc(-c2cc(N3CCCCC3)c(C#N)c3c2-c2ccccc2C3=O)cc1` was 210 to 212 °C.
The value for `NC(=O)C1CCc2c(C(=O)c3ccc(Cl)cc3)cccc21` (centres undefined) was 159 to 161 °C; that for `CCC(C)c1ccc(-n2c(-c3cc(C)c(OCCO)c(C)c3)nc3ccc(F)cc3c2=O)cc1` (centres undefined) was 70 to 72 °C; that for `Cc1ccc(C(=O)c2ccccc2F)cc1` was 73 to 74 °C.
In turn, `COC(=O)[C@@](C#N)(COCc1ccccc1)[C@H](c1ccccc1OC)c1cccc2ccccc12` (relative stereo) returned a melting point of 133 to 134 °C.
As to `O=[N+]([O-])c1ccc(N2CCN(c3ccc(O)cc3)CC2)cc1`, the melting point is 260 °C.
On to `Cn1c(C#N)c(-c2ccc(F)cc2)c2cccnc2c1=O`, for which the melting point lay within 231 to 232 °C.
The value for `COC(=O)c1cc(C(=O)NCC(=O)O)c2cc(Cc3ccc(F)cc3)cnc2c1O` was 246 to 247 °C; that for `c1ccc2c(c1)-c1ccccc1C2CC1c2ccccc2-c2ccccc21` was 210 to 212 °C; that for `CN(C#N)c1ccc(OCc2ccccc2)cc1` was 116 °C.
With `NS(=O)(=O)c1ccc(-n2cc(C(F)(F)F)nc2-c2ccc(-c3cscn3)cc2)cc1F`, the melting point lay in the range of 130 to 133 °C.
The value for `CCn1ncc2c(Cl)c(C#N)cnc21` was 100 to 102 °C.
The value for `CCCCCCCCCC(=O)c1cn(CCCC(=O)O)c2ccccc12` was 89 to 90 °C; that for `N[C@@]1(C(=O)O)C[C@H](NC(=O)Nc2ccc(Cl)cc2)[C@H]2[C@H](C(=O)O)[C@H]21` (relative stereo) was over 250 °C; that for `CC(=O)Nc1cc(N(C)C)ccc1C1(c2ccc(N(C)C)cc2N(C)C)OC(=O)c2ccccc21` (centres undefined) was 97 to 136 °C.
In turn, `OCC(O)Cc1ccc(Br)cc1` (centres undefined) showed a melting point of 60.6 °C.
Next, `NC(=O)C(CCCCCOc1cccc([N+](=O)[O-])c1C=O)C1NCCc2ccccc21` (centres undefined): 99 to 100 °C.
Next, `COC(=O)C1=C(C)NC(C)=C(C(=O)OC)C1c1ccccc1Cl`: 188 to 189 °C; `CCCCN1CCN(c2nc(C)c(C(=O)NCc3cccnc3)s2)C1=O`: 109 to 111 °C; `Cc1cc(-c2cc(C(F)(F)F)n3ncc(-c4nc(-c5ccc(N)nc5)no4)c3n2)ccc1C(F)(F)F`: 220 °C.
With `O=C(O)c1ccccc1-c1ccc2c(C(=O)NCC34CC5CC(CC(C5)C3)C4)c(Cl)ccc2n1`, the melting point lay within 156 to 158 °C.
The value for `CCOC(=O)c1ccc(NO)cc1` was 72.5 °C.
Regarding `Cc1nc2c3c(c(C(=O)N(C)C)cc2n1C)CC[C@@H](c1ccccc1)O3`, the melting point was in the range of 227 to 228 °C.
Next, `NC(=O)CNc1c(F)cc([N+](=O)[O-])cc1F`: 160 to 162 °C.
`Cc1ccc(C)c2c(=O)n(CCCN3CC=C(c4ccc(Cl)cc4)CC3)c(=O)[nH]c12`: the melting point is 212 to 220 °C.
Next, `CC(C)(C#N)c1cc(Cc2cncnc2)cc(C(C)(C)C#N)c1`: 132 to 134 °C; `COc1ccc(C2Sc3ccccc3N(CC(N)=O)C(=O)C2NC(=O)c2ccc3ccccc3c2)cc1` (centres undefined): 243 to 245 °C.
